# Measurements: paper PMC7262913, “Substrate recognition by a bifunctional GH30‐7 xylanase B from Talaromyces cellulolyticus” (FEBS Open Bio, 2020)
# Target: T1, TcXyn30B (Talaromyces pinophilus, UniProt A0A510NXC4)
# T1 construct: gene TCE0_018f06110; no His tag; vector residues AYVEF at N-terminus (numbered 18-22); secreted from Pichia pastoris GS115, N-glycosylated, 62182 Da; one molecule per asymmetric unit
# T1 sequence (A0A510NXC4 23-474): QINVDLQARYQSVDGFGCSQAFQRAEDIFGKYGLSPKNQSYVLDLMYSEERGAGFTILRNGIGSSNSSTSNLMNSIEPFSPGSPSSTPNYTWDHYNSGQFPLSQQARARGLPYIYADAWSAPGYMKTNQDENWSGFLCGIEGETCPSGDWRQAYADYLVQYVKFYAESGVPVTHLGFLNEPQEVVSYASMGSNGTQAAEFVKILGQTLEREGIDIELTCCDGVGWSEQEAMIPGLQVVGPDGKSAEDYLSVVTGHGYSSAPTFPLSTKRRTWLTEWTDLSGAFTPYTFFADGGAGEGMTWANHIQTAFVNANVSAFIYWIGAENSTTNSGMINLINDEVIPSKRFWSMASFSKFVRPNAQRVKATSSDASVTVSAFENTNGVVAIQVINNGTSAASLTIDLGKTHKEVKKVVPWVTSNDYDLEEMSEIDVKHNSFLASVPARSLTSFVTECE
# Test: X-ray crystallography (co-crystal, […] Å)
# Format: binding
# Conditions: co-crystallised with aldouronic acid mixture (Megazyme); pH 7.3, MgCl2; subsites -1, -2a and -2b of active site
structure (smiles),measurement,value
"CO[C@H]1[C@H](O)[C@@H](O)[C@@H](O[C@H]2[C@H](O[C@@H]3COC(O)[C@H](O)[C@H]3O)OC[C@@H](O)[C@@H]2O)O[C@@H]1C(=O)O (stereo partly drawn) [U^4m2X, 2^2‐(4‐O‐methyl‐α‐D‐glucuronyl)‐xylobiose]","X-ray crystallography (co-crystal, 1.65 Å)",A clear density map for U^4m2X is observed in the active cleft
